US7297551B2, “Recombinant proteins and peptides for endotoxin biosensors, endotoxin removal, and anti-microbial and anti-endotoxin therapeutics” (priority 1998, dated 2007)

Assays:
[1] = target: T1, SSCrFCES (LPS-binding domain of C. rotundicauda Factor C, rFCES amino acids 29-330, numbered as in SEQ ID NO: 4) (Carcinoscorpius rotundicauda, UniProt Q26422); assay: Surface plasmon resonance binding to immobilized lipid A; conditions: 400 ng/100 ul SSCrFCES
T1 construct: rFCES (amino acids 29-330); made in house; host or cells: Drosophila S2 cells
T1 sequence (Q26422 29-330): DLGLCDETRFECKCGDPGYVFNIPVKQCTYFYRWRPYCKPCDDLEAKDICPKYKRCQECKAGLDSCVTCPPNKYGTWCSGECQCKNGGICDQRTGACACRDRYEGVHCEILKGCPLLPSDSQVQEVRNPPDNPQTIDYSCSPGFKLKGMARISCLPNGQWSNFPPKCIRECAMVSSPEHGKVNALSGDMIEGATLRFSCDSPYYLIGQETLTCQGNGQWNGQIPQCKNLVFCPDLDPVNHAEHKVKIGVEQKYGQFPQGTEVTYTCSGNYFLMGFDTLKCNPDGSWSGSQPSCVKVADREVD
Experimental: Recognition of lipid A by the abovenamed secreted recombinant proteins and peptides was, performed with a BIAcore X™ biosensor instrument and an HPA sensor chip. Briefly, lipid A at 0.5 mg/ml in PBS was immobilized to a HPA sensor chip (Pharmacia) according to the manufacturer's specification. In all experiments, pyrogen-free PBS was used as the running buffer at a flow rate of 10 μl/min.
With purified SSCrFCES, 4 μg/ml was injected into the flow cell at a rate of 10 μl/min, and the binding response was measured as a function of time. Following injection of SSCrFCES, a solution of INDIA™ HisProbe™-HRP antibody, diluted in PBS to 400 μg/ml, was also injected to cause a shift in SPR in order to further confirm that SSCrFCES binds to lipid A. For regeneration, 100 mM of NaOH solution was injected for 5 minutes. Similar lipid A binding analysis was carried out with SSCrFCsushi-GFP fusion proteins.

[2] = target: BPI pep85-99 (15 mer); conditions: de Haas et al., 1998; ligand cell empty; read-out: Equilibrium constant; cited from earlier work
[3] = target: T2, rFCSN (truncated C. rotundicauda Factor C, CrFC26SN, lacking the LPS-binding domain, from P. pastoris) (Carcinoscorpius rotundicauda, UniProt Q26423); assay: Modified Western blot of LPS/lipid A
T2 construct: Pichia pastoris
T2 sequence (Q26423 1-1083): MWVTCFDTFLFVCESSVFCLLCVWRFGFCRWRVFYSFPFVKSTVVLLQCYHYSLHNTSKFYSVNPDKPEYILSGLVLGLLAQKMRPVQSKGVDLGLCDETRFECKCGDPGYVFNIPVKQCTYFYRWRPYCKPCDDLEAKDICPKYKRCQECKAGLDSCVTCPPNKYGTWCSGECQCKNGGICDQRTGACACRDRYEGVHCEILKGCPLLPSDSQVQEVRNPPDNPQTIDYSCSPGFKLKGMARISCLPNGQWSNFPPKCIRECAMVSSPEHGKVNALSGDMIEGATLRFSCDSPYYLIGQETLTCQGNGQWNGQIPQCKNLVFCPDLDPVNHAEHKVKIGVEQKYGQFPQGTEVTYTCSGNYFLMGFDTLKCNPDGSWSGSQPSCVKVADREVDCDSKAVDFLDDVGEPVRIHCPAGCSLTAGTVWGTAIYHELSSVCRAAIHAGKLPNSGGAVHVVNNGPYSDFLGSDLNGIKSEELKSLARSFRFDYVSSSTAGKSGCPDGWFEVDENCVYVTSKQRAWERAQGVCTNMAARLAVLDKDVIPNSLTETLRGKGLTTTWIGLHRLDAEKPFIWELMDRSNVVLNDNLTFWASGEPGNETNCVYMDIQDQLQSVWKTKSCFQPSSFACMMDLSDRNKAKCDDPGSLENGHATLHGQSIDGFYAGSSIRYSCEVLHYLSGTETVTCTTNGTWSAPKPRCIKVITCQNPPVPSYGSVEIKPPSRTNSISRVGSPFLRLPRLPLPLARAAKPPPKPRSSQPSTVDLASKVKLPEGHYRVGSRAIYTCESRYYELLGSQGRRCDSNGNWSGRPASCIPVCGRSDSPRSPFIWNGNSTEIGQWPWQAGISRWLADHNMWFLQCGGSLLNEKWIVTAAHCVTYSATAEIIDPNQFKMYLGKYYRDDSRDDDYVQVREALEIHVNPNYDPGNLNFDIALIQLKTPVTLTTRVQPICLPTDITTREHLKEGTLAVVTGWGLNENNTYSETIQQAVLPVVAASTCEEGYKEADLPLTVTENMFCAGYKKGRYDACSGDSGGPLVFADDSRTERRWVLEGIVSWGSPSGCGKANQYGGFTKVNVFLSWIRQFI
Experimental: LPS from E. coli 055:B5 (Sigma) was reconstituted to 2 μg/μl, and diphosphoryl lipid A from E. coli K12, D31m4 LPS (List Biologicals, Inc., USA) was made up to 1 μg/μl. The LPS-binding assay was based on modifications of earlier described protocols (45,61). Briefly, 10 μg aliquots of LPS/lipid A were electrophoresed on a denaturing 15% SDS-polyacrylamide gel and electroblotted onto Immobilon™ PVDF membrane. The membrane was cut into strips and each LPS/lipid A strip was subsequently incubated with 300 μg of proteins containing rFC. Detection of rFC binding to lipid A was accomplished by incubation with anti-Factor C antibody followed by alkaline phosphatase-conjugated secondary goat anti-rabbit antibody (Dako) and BCIP/NBT colorimetric substrate (Moss, Inc., USA).

[4] = target: T1, SSCrFCES (LPS-binding domain of C. rotundicauda Factor C, rFCES amino acids 29-330, numbered as in SEQ ID NO: 4); assay: ELISA-based lipid A binding assay
Experimental: A Polysorp™ 96-well plate (Nunc) was first coated with 100 μl per well of various concentrations of lipid A diluted in pyrogen-free PBS. The plate was sealed and allowed to incubate overnight at room temperature. The wells were aspirated and washed 6 times with 200 μl per wash solution (PBS containing 0.01% Tween-20 and 0.01% thimerosal). Blocking of unoccupied sites was achieved using wash solution containing 0.2% BSA for 1 hour at room temperature. Subsequently, blocking solution was removed and the wells washed as described above. Varying concentrations of SSCrFCES were allowed to interact with bound lipid A at room temperature for 2 hours.
Bound SSCrFCES was detected by sequential incubation with rabbit anti-SSCrFCES antibody (1:1000 dilution) and goat anti-rabbit antibody conjugated with HRP (1:2000 dilution) (Dako). Incubation with each antibody was for 1 h at 37° C. with washing between incubations as described above. In the final step, 100 μl of peroxide substrate ABTS (Boehringer Mannheim) was added. Using a microtiter plate reader, the absorbance of the samples was determined at 405 nm with reference wavelength at 490 nm. The values were correlated to the amount of LPS bound and SSCrFCES present. Quantitation of SSCrFCES was achieved from a standard curve derived by immobilizing known amount of purified SSCrFCES onto a Maxisorp plate.

## lipid A
[1]
  saturation of lipid A: 92%
[2]
  Kd: 1760 nM
[3]
  binding to the 7-20 kDa lipid A bands: No binding
[4]
  Hill's coefficient: 2.2
  molar ratio of bound SSCrFCES to immobilized lipid A at saturation: 0.37
[4]; at saturation
  stoichiometry, lipid A molecules per SSCrFCES: ~3
